Data: US20230057930A1, “COMPOSITIONS FOR ALLEVIATING THE SYMPTOMS OF LOW ANTERIOR RESECTION SYNDROME BY TOPICAL ADMINISTRATION TO THE NEORECTUM” (RepoCeuticals A/S, priority 2020, published 2023)

Columns and labels:
[1] = Storage stability of melatonin in aqueous solution / formulation; format: physicochemical; settings: shelf life
Protocol: Dimethyl sulfoxide (DMSO): DMSO ((CH3)2SO), molecular weight 78.1 g/mol, is a colorless polar aprotic solvent for both polar and nonpolar compounds and is completely miscible with water and a wide range of organic solvents. It is well known as a solvent or solubilizer for melatonin, as are also ethanol, glycerin and propylene glycol. […] On the other hand, the solubility of melatonin in water is limited to approximately 2 g/L at 20° C. […] DMSO penetrates the skin and other epithelia without damaging them and can carry other compounds dissolved in it into the underlying cells and tissues. DMSO has been used in human subjects as a topical analgesic, a vehicle for the topical application of pharmaceuticals e.g. as a component of a transdermal drug delivery systems, as an anti-inflammatory agent, and as an antioxidant. It is also used as a cryopreservative for sperm and oocytes in fertility treatments as well as for stem cells and modified lymphocytes for cellular therapies for cancer. […] While DMSO has been examined for the treatment of numerous conditions and ailments, its only use approved by the U.S. Food and Drug Administration (FDA) has been for the symptomatic treatment of interstitial cystitis, in which 50% (w/w) aqueous DMSO is instilled into the urinary bladder. […]

[2] = cited from earlier work
human subjects = settings: cited from earlier work
rats = settings: rat, cited from earlier work
patients with LARS = settings: cited from earlier work

Compound: glycofurol
- effect on decomposition of melatonin in aqueous solutions [1]: reduces the decomposition of melatonin

Compound: COc1ccc2[nH]cc(CCNC(C)=O)c2c1 [Melatonin, N-acetyl-5-methoxytryptamine]
- solubility in water ([2]; 20° C.): approximately 2 g/L
- solubility in DMSO ([2]; room temperature (20 or 25° C.)): ≥ 232 mg/mL
- adverse effects in human subjects (human subjects; gram amounts oral per day for prolonged periods): without apparent adverse effects
- 50% lethal oral dose (LD50 oral) (rats; in vivo, po): > 3200 mg/kg

Compound: C[S+](C)[O-] [DMSO, Dimethyl sulfoxide]
- effect on decomposition of melatonin in aqueous solutions [1]: prevents the decomposition of melatonin
- adverse effects in patients (human subjects; intravenously, doses up to 1 g/kg/day): without evidence of adverse effects
- median 50% lethal oral dose (LD50 oral) relative to ethanol (rats; oral): twice as high as that of ethanol

Compound: Cn1cc(C(=O)[C@@H]2CCc3nc[nH]c3C2)c2ccccc21 [ramosetron]
- effect on symptoms of LARS (patients with LARS): alleviated the symptoms of urgency and reduced the number of bowel movements per day
